ChEMBL document CHEMBL3997770, “An overview of the binding models of FGFR tyrosine kinases in complex with small molecule inhibitors” (Eur J Med Chem, 2017)
pEC50, pIC50: −log10 of the molar value.

Legend:
[1] = test system: SNU-16; assay: cells; settings: Homo sapiens, SNU-16, 72 h
[2] = biological target: T1, Fibroblast growth factor receptor 2 (Homo sapiens, UniProt P21802); assay: Inhibition of FGFR2 (unknown origin)
[3] = biological target: Fibroblast growth factor receptor 3 (Homo sapiens, UniProt P22607); assay: Inhibition of FGFR3 (unknown origin)
Fibroblast growth factor receptor 3, sequence (P22607 whole entry): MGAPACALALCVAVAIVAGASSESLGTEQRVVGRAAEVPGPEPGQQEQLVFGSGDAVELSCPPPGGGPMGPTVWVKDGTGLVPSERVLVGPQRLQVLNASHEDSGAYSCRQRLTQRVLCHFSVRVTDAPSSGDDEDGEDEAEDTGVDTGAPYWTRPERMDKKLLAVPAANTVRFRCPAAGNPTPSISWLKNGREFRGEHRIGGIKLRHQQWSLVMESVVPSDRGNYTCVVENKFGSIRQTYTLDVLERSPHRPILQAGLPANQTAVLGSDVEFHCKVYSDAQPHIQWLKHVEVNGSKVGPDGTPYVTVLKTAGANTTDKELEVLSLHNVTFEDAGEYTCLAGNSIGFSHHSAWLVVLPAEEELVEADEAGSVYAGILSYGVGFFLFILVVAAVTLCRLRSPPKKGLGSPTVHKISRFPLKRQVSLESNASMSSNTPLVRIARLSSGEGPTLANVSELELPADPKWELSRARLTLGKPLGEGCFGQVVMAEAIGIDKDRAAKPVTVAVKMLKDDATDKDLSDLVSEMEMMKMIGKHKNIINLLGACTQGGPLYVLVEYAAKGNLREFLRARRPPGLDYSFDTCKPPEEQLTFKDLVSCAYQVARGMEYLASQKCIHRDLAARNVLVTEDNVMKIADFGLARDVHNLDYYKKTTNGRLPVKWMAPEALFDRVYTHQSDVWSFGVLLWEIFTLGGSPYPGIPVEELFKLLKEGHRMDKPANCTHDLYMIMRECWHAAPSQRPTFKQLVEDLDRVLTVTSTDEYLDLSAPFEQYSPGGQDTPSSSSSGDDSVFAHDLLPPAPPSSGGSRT

[4] = biological target: T2, Fibroblast growth factor receptor 4 (Homo sapiens, UniProt P22455); assay: Inhibition of FGFR4 (unknown origin)
T2 sequence (P22455 whole entry): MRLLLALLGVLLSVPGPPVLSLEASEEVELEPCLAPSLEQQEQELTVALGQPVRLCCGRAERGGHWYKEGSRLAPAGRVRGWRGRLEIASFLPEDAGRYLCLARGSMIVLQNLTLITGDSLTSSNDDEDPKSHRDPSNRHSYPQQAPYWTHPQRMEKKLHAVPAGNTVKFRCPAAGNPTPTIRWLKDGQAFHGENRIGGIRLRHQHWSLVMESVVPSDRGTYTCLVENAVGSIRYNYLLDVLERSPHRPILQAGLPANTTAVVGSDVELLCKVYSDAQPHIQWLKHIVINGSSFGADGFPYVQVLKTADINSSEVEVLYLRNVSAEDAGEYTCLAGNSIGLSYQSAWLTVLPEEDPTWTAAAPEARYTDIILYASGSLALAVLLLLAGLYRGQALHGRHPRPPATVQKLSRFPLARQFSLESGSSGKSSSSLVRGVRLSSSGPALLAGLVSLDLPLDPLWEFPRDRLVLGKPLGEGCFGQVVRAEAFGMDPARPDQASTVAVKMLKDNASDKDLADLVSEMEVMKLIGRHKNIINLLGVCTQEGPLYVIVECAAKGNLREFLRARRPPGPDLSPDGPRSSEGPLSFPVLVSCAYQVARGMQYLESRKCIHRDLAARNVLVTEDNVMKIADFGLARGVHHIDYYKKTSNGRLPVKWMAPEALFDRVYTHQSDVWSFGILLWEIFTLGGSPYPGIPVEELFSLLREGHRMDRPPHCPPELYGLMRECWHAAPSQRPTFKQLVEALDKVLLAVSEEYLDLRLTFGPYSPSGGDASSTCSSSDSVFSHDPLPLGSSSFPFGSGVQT

[5] = biological target: Fibroblast growth factor receptor 2 (Homo sapiens, UniProt P21802, V564M); assay: Inhibition of FGFR2 V564M mutant (unknown origin)
Fibroblast growth factor receptor 2 (Homo sapiens, UniProt P21802, V564M), sequence (P21802 22-821 V564M limits assumed): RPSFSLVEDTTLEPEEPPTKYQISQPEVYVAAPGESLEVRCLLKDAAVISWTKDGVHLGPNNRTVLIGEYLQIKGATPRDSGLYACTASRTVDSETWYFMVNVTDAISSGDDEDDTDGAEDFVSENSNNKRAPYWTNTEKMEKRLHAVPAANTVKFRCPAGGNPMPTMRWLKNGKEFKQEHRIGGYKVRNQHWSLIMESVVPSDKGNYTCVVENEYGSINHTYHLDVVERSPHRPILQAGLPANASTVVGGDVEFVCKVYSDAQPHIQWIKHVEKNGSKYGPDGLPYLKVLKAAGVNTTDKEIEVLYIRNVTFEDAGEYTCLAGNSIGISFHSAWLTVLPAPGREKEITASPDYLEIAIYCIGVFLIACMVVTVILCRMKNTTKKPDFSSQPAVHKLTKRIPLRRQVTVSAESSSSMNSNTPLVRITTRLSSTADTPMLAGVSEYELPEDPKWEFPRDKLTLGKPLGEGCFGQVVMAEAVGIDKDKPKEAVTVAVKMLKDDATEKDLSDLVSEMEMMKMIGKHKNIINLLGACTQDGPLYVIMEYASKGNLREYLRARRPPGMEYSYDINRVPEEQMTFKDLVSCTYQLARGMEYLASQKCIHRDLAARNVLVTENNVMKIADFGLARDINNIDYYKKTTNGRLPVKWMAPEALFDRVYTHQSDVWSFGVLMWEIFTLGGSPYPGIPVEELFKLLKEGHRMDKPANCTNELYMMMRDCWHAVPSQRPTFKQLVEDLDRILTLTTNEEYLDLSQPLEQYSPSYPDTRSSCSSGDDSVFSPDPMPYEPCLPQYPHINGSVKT

[6] = biological target: T3, Fibroblast growth factor receptor 1 (Homo sapiens, UniProt P11362); assay: Inhibition of FGFR1 (unknown origin)
T3 sequence (P11362 whole entry, the tested form may be a part): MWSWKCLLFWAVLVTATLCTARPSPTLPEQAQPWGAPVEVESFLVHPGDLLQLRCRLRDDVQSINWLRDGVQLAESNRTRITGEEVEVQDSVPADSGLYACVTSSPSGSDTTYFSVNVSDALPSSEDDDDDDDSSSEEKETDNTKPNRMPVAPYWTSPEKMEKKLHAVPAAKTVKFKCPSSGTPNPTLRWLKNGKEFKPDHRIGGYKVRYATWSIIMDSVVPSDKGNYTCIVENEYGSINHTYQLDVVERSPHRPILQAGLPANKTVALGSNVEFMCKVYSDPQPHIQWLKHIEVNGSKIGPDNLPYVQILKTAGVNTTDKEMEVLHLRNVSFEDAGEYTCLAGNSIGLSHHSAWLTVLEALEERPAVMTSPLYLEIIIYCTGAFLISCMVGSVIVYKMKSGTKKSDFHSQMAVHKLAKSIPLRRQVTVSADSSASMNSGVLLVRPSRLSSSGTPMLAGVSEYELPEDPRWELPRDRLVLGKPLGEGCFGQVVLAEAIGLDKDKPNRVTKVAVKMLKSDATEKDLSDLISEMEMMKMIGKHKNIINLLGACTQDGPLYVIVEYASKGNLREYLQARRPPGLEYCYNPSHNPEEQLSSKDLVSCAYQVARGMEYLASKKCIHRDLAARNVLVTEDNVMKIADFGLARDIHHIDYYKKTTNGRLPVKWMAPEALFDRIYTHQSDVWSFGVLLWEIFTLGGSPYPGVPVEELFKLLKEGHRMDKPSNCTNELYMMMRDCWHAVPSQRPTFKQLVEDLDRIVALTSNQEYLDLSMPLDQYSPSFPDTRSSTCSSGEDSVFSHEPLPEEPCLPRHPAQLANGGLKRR

[7] = biological target: T3, Fibroblast growth factor receptor 1; assay: Inhibition of FGFR1 kinase domain (unknown origin)
[8] = biological target: Fibroblast growth factor receptor 1 (Mus musculus, UniProt P16092); assay: Inhibition of FGF induced FGFR1 autophosphorylation in mouse NIH 3T3 cells preincubated for 5 mins followed by FGF-stimulation for 5 mins in presence of [gamma-32P]ATP by SDS-PAGE based autoradiography; type: cell-based
Fibroblast growth factor receptor 1 (Mus musculus, UniProt P16092), sequence (P16092 whole entry): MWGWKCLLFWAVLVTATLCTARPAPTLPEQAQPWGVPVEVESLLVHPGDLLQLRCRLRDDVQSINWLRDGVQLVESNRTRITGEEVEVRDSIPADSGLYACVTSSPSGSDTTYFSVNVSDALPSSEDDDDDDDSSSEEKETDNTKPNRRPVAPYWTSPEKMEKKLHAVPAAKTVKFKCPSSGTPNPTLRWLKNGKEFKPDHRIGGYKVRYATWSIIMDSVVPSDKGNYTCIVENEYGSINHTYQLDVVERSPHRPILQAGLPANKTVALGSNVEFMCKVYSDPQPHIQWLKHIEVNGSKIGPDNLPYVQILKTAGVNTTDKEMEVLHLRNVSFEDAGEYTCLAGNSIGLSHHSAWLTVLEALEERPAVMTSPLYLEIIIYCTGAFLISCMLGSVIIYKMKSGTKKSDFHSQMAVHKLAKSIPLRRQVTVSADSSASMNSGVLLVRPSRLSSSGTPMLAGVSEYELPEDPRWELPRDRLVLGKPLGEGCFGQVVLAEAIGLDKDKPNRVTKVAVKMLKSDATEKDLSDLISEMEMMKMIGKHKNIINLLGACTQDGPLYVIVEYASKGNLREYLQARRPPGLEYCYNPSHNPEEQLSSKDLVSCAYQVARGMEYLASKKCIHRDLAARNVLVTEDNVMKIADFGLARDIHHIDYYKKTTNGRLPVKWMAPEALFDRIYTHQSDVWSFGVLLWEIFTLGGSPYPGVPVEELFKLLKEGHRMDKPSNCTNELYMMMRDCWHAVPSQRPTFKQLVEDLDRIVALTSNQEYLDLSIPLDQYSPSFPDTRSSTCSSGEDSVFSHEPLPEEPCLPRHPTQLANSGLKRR

[9] = biological target: Epidermal growth factor receptor (Homo sapiens, UniProt P00533, L858R); assay: Inhibition of EGFR L858R mutant (unknown origin)
[10] = biological target: T3, Fibroblast growth factor receptor 1; assay: Inhibition of recombinant His6-tagged FGFR1 (unknown origin) expressed in Escherichia coli BL21(DE3)-RILP using peptidic substrate by ELISA
[11] = biological target: T1, Fibroblast growth factor receptor 2; assay: Inhibition of recombinant His6-tagged FGFR2 (unknown origin) expressed in Escherichia coli BL21(DE3)-RILP using peptidic substrate by ELISA
[12] = biological target: T2, Fibroblast growth factor receptor 4; assay: Inhibition of human N-terminal GST-tagged FGFR4 cytoplasmic domain (460 to 802 end residues) expressed in baculovirus expression system using CSKtide as substrate after 90 mins

T1 sequence (P21802 whole entry): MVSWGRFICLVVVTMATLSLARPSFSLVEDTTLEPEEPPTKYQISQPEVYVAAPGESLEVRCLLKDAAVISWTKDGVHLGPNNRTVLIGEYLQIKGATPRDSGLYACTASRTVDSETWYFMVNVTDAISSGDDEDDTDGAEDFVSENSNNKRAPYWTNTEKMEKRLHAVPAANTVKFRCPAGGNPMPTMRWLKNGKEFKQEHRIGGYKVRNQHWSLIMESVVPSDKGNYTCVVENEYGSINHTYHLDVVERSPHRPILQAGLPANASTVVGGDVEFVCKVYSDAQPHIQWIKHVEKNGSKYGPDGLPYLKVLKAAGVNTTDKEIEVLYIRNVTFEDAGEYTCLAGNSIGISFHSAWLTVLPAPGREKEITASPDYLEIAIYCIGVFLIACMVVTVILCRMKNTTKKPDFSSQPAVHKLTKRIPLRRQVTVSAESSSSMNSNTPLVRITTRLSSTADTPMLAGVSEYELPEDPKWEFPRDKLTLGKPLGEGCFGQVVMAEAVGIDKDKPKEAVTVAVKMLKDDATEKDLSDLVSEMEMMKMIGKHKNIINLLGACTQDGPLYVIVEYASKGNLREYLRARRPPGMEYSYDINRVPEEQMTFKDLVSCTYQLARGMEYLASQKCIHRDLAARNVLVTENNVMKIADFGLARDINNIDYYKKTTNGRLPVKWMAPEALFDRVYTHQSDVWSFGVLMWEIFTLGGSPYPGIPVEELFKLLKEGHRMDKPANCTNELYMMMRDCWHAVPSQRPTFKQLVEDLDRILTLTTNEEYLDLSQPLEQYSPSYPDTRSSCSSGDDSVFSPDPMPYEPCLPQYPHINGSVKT

CCN1CCN(c2ccc(C(=O)Nc3n[nH]c4cc(-c5cccc(OC)c5)ccc34)cc2)CC1 showed a pIC50 [1] of 6.19.
Work on C=CC(=O)Nc1ccc(CN2C(=O)N(c3cc(OC)cc(OC)c3)Cc3cnc(Nc4ccc(N5CCN(C)CC5)cc4)nc32)cc1 yielded a pIC50 [2] of 8.40, a pIC50 [3] of 7.03 and a pIC50 [4] of 7.49. It also gave a pIC50 [5] of 7.24 and a pEC50 [6] of 9.00.
Cc1c[nH]c(/C=C2\C(=O)Nc3ccccc32)c1CCC(=O)O showed a pIC50 [7] of 4.70 to 5.00 and a pIC50 [8] of 4.70 to 5.00.
For O=CN1CCN(c2ccc(/C=C3\C(=O)Nc4ccccc43)cc2)CC1, the pIC50 [7] was 4.70 to 5.00 and the pIC50 [8] was 4.40 to 4.70.
For C=CC(=O)Nc1ccc(CN(C(=O)Nc2c(Cl)c(OC)cc(OC)c2Cl)c2cc(Nc3ccc(N4CCN(C)CC4)cc3)ncn2)cc1, the pIC50 [2] was > 9.00, the pIC50 [3] was 7.39 and the pIC50 [4] was 7.66. For the same molecule, the pIC50 [5] was 7.19, the pIC50 [9] was 7.77 and the pEC50 [6] was 9.00.
Molecule Nc1ncc2c(n1)-c1ccccc1[C@H](c1ccccc1)C2 has a pIC50 [10] of 6.08 and a pIC50 [11] of 5.91.
Molecule CCN1CCN(c2ccc(C(=O)Nc3n[nH]c4cc(-c5cccc(OC)c5F)ccc34)cc2)CC1 has a pIC50 [1] of 7.39.
In the case of C=CC(N)=O [ACRYLAMIDE], the pIC50 [12] was 6.03.
